{"source": "patent US20160081354A1", "about": "“METHOD FOR TREATMENT OF MICROORGANISMS DURING PROPAGATION, CONDITIONING AND FERMENTATION USING HOPS ACID EXTRACTS AND NISIN” (Solenis Technologies, L.P., priority 2014, published 2016)", "key": {"[1]": {"tested_on": "yeast (Saccharomyces cerevisiae) fermentations contaminated by lactic acid bacteria (L. plantarum)", "experiment": "Corn mash fermentation lab test: ethanol and lactic acid at the end of fermentation", "assay_type": "cell-based", "settings": "64 hours, nisin alone 5 ppm, Virginiamycin 0.5 ppm", "procedure": "Evaluations were conducted at the National Corn-to-Ethanol Research Center, utilizing hops acid extracts and nisin. The samples tested and their concentrations can be found in FIG. 1 and Tables 2 and 4. The tests were conducted to evaluate the effects of binary antimicrobials on ethanol production in corn mash produced under conditions that are similar to those used in the fuel ethanol industry. Two specific effects were investigated: (1) the ability of antimicrobials to affect ethanol yield and sugar conversion in fermentations that are contaminated by lactic acid bacteria, and (2) the ability of antimicrobials to control bacterial infections compared to control bacteria-free fermentations. Three 160-gram slurries of corn flour, water and enzyme (30% w/w dry solids) were made for each treatment and control (inoculated and uninoculated). The slurries were incubated for 90 minutes at 83° C., cooled to 40° C., and then inoculated with L. plantarum. Next, the slurries were dosed with antimicrobial. […] The mass of each flask was recorded after all additions were made, then sanitized fermentation traps were inserted into each flask and they were weighed again. […] Fermentation progress was monitored by weighing the fermentation flasks periodically during the 3-day incubation (at 0, 17.5, 22.5, 42.5, 48, and 64 hrs after inoculation with yeast). The concentrations of substrates (glucose, DP2, DP3, and DP4+, where “DPx” represent glucose oligomers with “x” subunits) and products (ethanol, glycerol, lactic acid, and acetic acid) were measured by HPLC at the end of fermentation. Samples were prepared for HPLC by centrifugation to remove large solids, followed by filtration through 0.45-μm syringe filters, and acidification to pH of approximately 2 by addition of sulfuric acid to a final concentration of 0.01 N. The final pH, concentrations of total dry solids and dissolved dry solids, and the density of the beer filtrate was measured were measured after incubation for 64 hours. […]"}, "Weisella confusa": {"tested_on": "Weisella confusa", "settings": "cited from earlier work"}, "L. plantarum": {"tested_on": "L. plantarum", "experiment": "Corn mash fermentation lab test: bacterial colony counts after antimicrobial addition", "assay_type": "cell-based", "settings": "nisin alone 5 ppm, virginiamycin 0.5 ppm", "procedure": "Evaluations were conducted at the National Corn-to-Ethanol Research Center, utilizing hops acid extracts and nisin. The samples tested and their concentrations can be found in FIG. 1 and Tables 2 and 4. The tests were conducted to evaluate the effects of binary antimicrobials on ethanol production in corn mash produced under conditions that are similar to those used in the fuel ethanol industry. Two specific effects were investigated: (1) the ability of antimicrobials to affect ethanol yield and sugar conversion in fermentations that are contaminated by lactic acid bacteria, and (2) the ability of antimicrobials to control bacterial infections compared to control bacteria-free fermentations. Three 160-gram slurries of corn flour, water and enzyme (30% w/w dry solids) were made for each treatment and control (inoculated and uninoculated). The slurries were incubated for 90 minutes at 83° C., cooled to 40° C., and then inoculated with L. plantarum. Next, the slurries were dosed with antimicrobial. The facility dosed hops acid extracts and nisin to 250-mL Erlenmeyer flasks and samples were collected at 15, 30 and 60 minutes post antimicrobial addition. After the 3 time-point samples were collected, the pH of the mash was adjusted to <5.2 by addition of 300 μl of 5-N sulfuric acid. All enzymes, nutrients, and other amendments added to the fermentation flasks were freshly prepared before use. Urea was added as a sterile 0.2-g/ml solution to a final concentration of 500 ppm (w/w) based on the nitrogen content of the urea (w/w, based on the total mass of mash). The glucoamylase enzyme (Spirizyme Excel, Novozymes) was prepared as a 0.25-g/ml solution and added at a dose of 0.066% (w/w, based on the wet weight of corn). Sterile water was added to equalize the total solids content of each treatment. […] The mass of each flask was recorded after all additions were made, then sanitized fermentation traps were inserted into each flask and they were weighed again. […] Fermentation progress was monitored by weighing the fermentation flasks periodically during the 3-day incubation (at 0, 17.5, 22.5, 42.5, 48, and 64 hrs after inoculation with yeast). The concentrations of substrates (glucose, DP2, DP3, and DP4+, where “DPx” represent glucose oligomers with “x” subunits) and products (ethanol, glycerol, lactic acid, and acetic acid) were measured by HPLC at the end of fermentation. Samples were prepared for HPLC by centrifugation to remove large solids, followed by filtration through 0.45-μm syringe filters, and acidification to pH of approximately 2 by addition of sulfuric acid to a final concentration of 0.01 N. The final pH, concentrations of total dry solids and dissolved dry solids, and the density of the beer filtrate was measured were measured after incubation for 64 hours. […]"}, "yeast": {"tested_on": "yeast", "settings": "fermentation mixture; cited from earlier work"}}}
{"substance": "Virginiamycin", "values": [{"measurement": "Average Ethanol", "setting": "[1]; end of fermentation", "value": "11.86 %, w/v"}, {"measurement": "Average Final Lactic Acid Concentration", "setting": "[1]; end of fermentation", "value": "0.38 %, w/w"}, {"measurement": "Average Final Ethanol Yield", "setting": "[1]; grams ethanol per grams of dry corn, average of three flasks", "value": 0.312, "unit": "g/g"}, {"measurement": "concentration required to inhibit growth of Weisella confusa", "setting": "Weisella confusa", "value": "over 25 mg/L"}, {"measurement": "Colony counts after antimicrobial addition", "setting": "L. plantarum; time point 0.25 (15 minutes post addition)", "value": "1.00E+06"}, {"measurement": "Colony counts after antimicrobial addition", "setting": "L. plantarum; time point 0.5 (30 minutes post addition)", "value": "1.35E+06"}, {"measurement": "Colony counts after antimicrobial addition", "setting": "L. plantarum; time point 1 (60 minutes post addition)", "value": "1.95E+06"}, {"measurement": "Colony counts at the end of fermentation", "setting": "L. plantarum; time point 64 (64 hours)", "value": "6.67E+04"}, {"measurement": "concentration that will suppress production of ethanol", "setting": "yeast", "value": "over 2 mg/L"}]}
